What all share (format): biochemical
In one assay the test system is almond β-glucosidase. Kind of assay: Glycosidase inhibition, almond β-glucosidase. Conditions: for inhibition %: in methanol. The text has this:
(§1) Glycosidase modulation studies need to explore selectivity as well as potency. Our drugs and controls are therefore screened against a panel of glycosidases in methanol (Table 1) to identify the glycosidase-related disease area(s), selectivity profile, and potency of biological action for each drug. The presence of organic boron covalently bonded to the drug structure also grants a reduced toxicity profile. Following the glycosidase inhibition range recommendations, an IC50 value >250 μm denotes weak inhibition, 100–249 μm denotes moderate inhibition, 10–99 μm good inhibition, 0.1–9 μm potent inhibition, and <0.1 μm very potent inhibition. […] Our boronated D-galactose 7 represents a novel lead in glycosidase inhibition.
(§2) The glycosidases screened are the following: rice α-glucosidase, yeast α-glucosidase, Bacillus α-glucosidase, rat intestinal maltase α-glucosidase, almond β-glucosidase, bovine liver β-glucosidase, coffee beans α-galactosidase, bovine liver β-galactosidase, Jack bean α-mannosidase, snail β-mannosidase, Penicillium decumbens α-L-rhamnosidase, bovine kidney α-L-fucosidase, Eschierichia coli β-glucuronidase, bovine liver β-glucuronidase, porcine kidney trehalase, Aspergillus niger amyloglucosidase, and bovine kidney N-acetyl-β-glucosaminidase. The disease areas for each glycosidase are summarized in [1].
(§3) The enzymes α-glucosidase (from yeast), β-glucosidases (from almond and bovine liver), α-galactosidase (from coffee beans), β-galactosidase (from bovine liver), α-mannosidase (from Jack bean), β-mannosidase (from snail), α-L-rhamnosidase (from Penicillium decumbens), α-L-fucosidase (from bovine kidney), trehalase (from porcine kidney), β-glucuronidases (from E. coli and bovine liver), amyloglucosidase (from A. niger), para-nitrophenyl glycosides, and various disaccharides were purchased from Sigma-Aldrich Co.
(§4) Brush border membranes were prepared from the rat small intestine according to the method of Kessler et al. and were assayed at pH 6.8 for rat intestinal maltase using maltose. For rat intestinal maltase, porcine kidney trehalase, and A. niger amyloglucosidase activities, the reaction mixture contained 25 mM maltose and the appropriate amount of enzyme, and the incubations were performed for 10–30 min at 37 °C. The reaction was stopped by heating at 100 °C for 3 min. After centrifugation (600 g; 10 min), the resulting reaction mixture was added to the Glucose CII-test Wako (Wako Pure Chemical Ind., Osaka, Japan). The absorbance at 505 nm was measured to determine the amount of the released D-glucose. Other glycosidase activities were determined using an appropriate para-nitrophenyl glycoside as substrate at the optimum pH of each enzyme. The reaction mixture contained 2 mM of the substrate and the appropriate amount of enzyme. The reaction was stopped by the addition of 400 mM Na2CO3. The released para-nitrophenol was measured spectrometrically at 400 nm. All reactions run in methanol.

For assay [1], the target named is T1, bovine kidney α-L-fucosidase (Bos taurus, UniProt Q2KIM0).
T1 construct: purchased Sigma-Aldrich Co; host or cells: bovine kidney
T1 sequence (Q2KIM0 23-468): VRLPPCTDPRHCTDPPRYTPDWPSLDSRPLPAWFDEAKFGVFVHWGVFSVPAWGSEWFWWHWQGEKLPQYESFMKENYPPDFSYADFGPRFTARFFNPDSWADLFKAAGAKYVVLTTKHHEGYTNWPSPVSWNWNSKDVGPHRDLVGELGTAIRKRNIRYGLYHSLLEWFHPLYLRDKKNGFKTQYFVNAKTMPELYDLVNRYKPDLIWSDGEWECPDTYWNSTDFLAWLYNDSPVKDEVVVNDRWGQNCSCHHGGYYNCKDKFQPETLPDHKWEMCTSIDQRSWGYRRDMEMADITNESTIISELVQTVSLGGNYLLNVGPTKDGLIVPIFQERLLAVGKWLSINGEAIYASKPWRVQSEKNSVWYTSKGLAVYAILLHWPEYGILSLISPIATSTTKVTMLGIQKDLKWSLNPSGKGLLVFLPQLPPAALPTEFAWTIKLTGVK
Kind of assay: Glycosidase inhibition, bovine kidney α-L-fucosidase.
From the text: as §1, §2, §3, §4

In assay [2] the target is T2, bovine liver β-glucuronidase (Bos taurus, UniProt A3KMY8).
T2 construct: purchased Sigma-Aldrich Co; host or cells: bovine liver
T2 sequence (A3KMY8 1-652): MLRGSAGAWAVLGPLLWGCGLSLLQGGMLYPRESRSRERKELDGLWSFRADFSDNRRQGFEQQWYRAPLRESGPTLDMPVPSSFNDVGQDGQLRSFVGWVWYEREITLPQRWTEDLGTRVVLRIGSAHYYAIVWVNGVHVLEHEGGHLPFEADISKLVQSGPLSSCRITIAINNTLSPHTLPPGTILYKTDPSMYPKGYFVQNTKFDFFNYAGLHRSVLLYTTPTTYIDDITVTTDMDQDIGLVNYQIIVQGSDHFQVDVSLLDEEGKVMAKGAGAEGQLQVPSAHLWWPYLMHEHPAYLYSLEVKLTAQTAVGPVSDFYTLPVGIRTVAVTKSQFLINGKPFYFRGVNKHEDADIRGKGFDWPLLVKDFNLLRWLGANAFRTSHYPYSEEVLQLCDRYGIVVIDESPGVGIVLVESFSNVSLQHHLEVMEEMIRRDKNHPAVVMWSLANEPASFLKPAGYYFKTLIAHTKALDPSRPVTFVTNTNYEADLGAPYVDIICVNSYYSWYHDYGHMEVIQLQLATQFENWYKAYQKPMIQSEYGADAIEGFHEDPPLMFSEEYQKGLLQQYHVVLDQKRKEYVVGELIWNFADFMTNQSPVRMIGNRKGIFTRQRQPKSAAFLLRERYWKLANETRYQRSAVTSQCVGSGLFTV
Kind of assay: Glycosidase inhibition, bovine liver β-glucuronidase.
From the text: as §1, §2, §3, §4

Where [3] appears, read: at 100 μM, in methanol, read-out: inhibition %.
Where [4] appears, read: at 100 μM, read-out: NI: No inhibition.
Where [5] appears, read: at 1000 μM, in methanol, read-out: inhibition %.
Setting [6] is: at 1000 μM, read-out: NI: No inhibition.

Read-outs that look alike come from different tables or passages of the source. Bounds are passed on as bounds.

For `N[C@@H](Cc1ccc(B(O)O)cc1)C(=O)O` [BPA, 4-borono-L-phenylalanine], the “NI: No inhibition” value with almond β-glucosidase (at 100 μM) is recorded as “NI (No inhibition (less than 50% inhibition at 100 μM))”. In addition, in the assay on almond β-glucosidase (at 100 μM), the inhibition % is reported as 0%. Also, the inhibition (usually the share of the control response that was lost under treatment) at 100 µM in assay [1] (setting [3]) is 0%; in assay [1] (setting [4]), < 50%; in assay [2] (setting [3]) it was 7.4%; in assay [2] (setting [4]) it was < 50%.
In the case of `CC1(C)OCC(C2OC3OC(C)(C)OC3C2[B-]23OCC[NH+]2CCO3)O1` [Compound 6, 3-Deoxy-3-Boronodiethanolamine-1,2:5,6-Di-O-isopropylidene-α-D-galactofuranose], in the assay on almond β-glucosidase (at 100 μM), the “NI: No inhibition” value is given as “NI (No inhibition (less than 50% inhibition at 100 μM))”. This compound returned an inhibition % in the assay with almond β-glucosidase (at 100 μM) of 0.3%. Further, the inhibition at 100 µM in assay [1] (setting [3]) is 6.5%; in assay [1] (setting [4]) it was < 50%; in assay [2] (setting [3]) it was 12.4%; in assay [2] (setting [4]), < 50%.
As for `OCC1OC(O)C(O)C(B(O)O)C1O` [Compound 7, 3-Boronic-3-Deoxy-D-galactose], in the assay with almond β-glucosidase (at 1000 μM), the “NI: No inhibition” value is recorded as “NI (No inhibition (less than 50% inhibition at 1000 μM))”. This compound also had an inhibition % in the assay on almond β-glucosidase (at 1000 μM) of 1.3%. The inhibition at 1000 µM is 1.3% in assay [1] (setting [5]), < 50% in assay [1] (setting [6]), 32.4% in assay [2] (setting [5]) and < 50% in assay [2] (setting [6]).
For the compound `N[C@@H](Cc1ccc(B(O)O)cc1)C(=O)O` [^10B-BPA], the “NI: No inhibition” value (with almond β-glucosidase (at 100 μM); in assay [1] (at 100 μM); in assay [2] (at 100 μM)) was “NI (No inhibition (less than 50% inhibition at 100 μM))” in each case. Moreover, the inhibition % is 0% in the assay with almond β-glucosidase (at 100 μM); 0% in assay [1] (at 100 μM, in methanol); 0% in assay [2] (at 100 μM, in methanol).
In the case of Borocaptate sodium [BSH], the “NI: No inhibition” value (in the assay with almond β-glucosidase (at 1000 μM); in assay [1] (at 1000 μM); in assay [2] (at 1000 μM)) was “NI (No inhibition (less than 50% inhibition at 1000 μM))” throughout. Besides, the inhibition % in the assay with almond β-glucosidase (at 1000 μM) worked out at 0%; in assay [1] (at 1000 μM, in methanol), 0%; in assay [2] (at 1000 μM, in methanol), 19.6%.
